{"source": "patent US7572832B2", "about": "“Non-hygroscopic L-carnitine salts” (Biolink Life Sciences, Inc., priority 2007, dated 2009)", "key": {"[1]": {"assay": "Observation of hygroscopicity and storage stability of the isolated solid on exposure to the atmosphere", "type": "physicochemical", "description": "The term “non-hygroscopic” means the ability endowed by certain L-carnitine salts, when they occur as powders or granules, to withstand exposure to the water vapor of an ambient atmosphere for 24 hours or longer without giving rise to adverse phenomena of aggregating, agglomerating, absorbing water, or deliquescing which results in loss of their flowability.\nAttempted preparation of L-carnitine calcium succinate. A mixture of calcium succinate ([…], 0.003 mol) and L-carnitine (0.5 g, 0.003 mol) was dissolved in water (5 mL) and stirred at room temperature for 30 minutes. Dissolution was incomplete, and the reaction temperature was raised to 80° C. Stirring was continued at the higher temperature for 3 hr. The resulting solution was cooled to room temperature and filtered, and the filtrate was concentrated at reduced pressure to a white solid.\nAttempted preparation of L-carnitine calcium salt. A mixture of calcium hydroxide (0.22 g, 0.003 mol) was suspended in acetone (100 mL) and a concentrated solution of L-carnitine (0.5 g, 0.003 mol) in the minimum volume of water needed to effect dissolution was added. The resulting reaction mixture was heated at reflux for 4 hours. Dissolution remained incomplete. The reaction mixture was filtered hot. The filtrate was concentrated at reduced pressure to a white solid."}, "[2]": {"conditions": "background statement; cited from earlier work"}, "[3]": {"conditions": "20 mg/kg intravenously (VitaCarn 20% solution) after every dialysis treatment, six months; cited from earlier work"}, "[4]": {"assay": "Determination of hygroscopicity or deliquescence (exposure study)", "conditions": "for change in mass, final vs initial net weight: + = increase, 1% or greater increase = hygroscopic, less than 1% change = stable and non-hygroscopic; for Net weight, final: open glass container, ambient atmosphere, end of 6-day storage period", "quoted_text": "The hygroscopicity or deliquescence of L-carnitine compounds was determined in the following manner. An accurately weighed portion of each compound was weighed into a separate, tared glass container that was open to the ambient atmosphere. Periodically during the storage period that followed, each sample was re-weighed and the mass recorded. At the end of the 6-day storage period, the change in mass at each interval was determined (Table 2)."}, "[5]": {"set-up": "species or system human", "conditions": "in vivo, iv", "excerpt": "Physiological effects of administration by injection of a solution of L-carnitine calcium acetate. The inventors expect that a study paralleling that of Golper et al. (Example 9, vide infra) may be completed in which L-carnitine calcium acetate of the present invention is substituted for the L-carnitine of Golper et al. L-Carnitine calcium acetate of the present invention has a known molecular weight and composition and is water soluble. Therefore, intravenously administrable solutions of L-carnitine calcium acetate can be prepared that will provide a known concentration of L-carnitine. The intravenously administrable solutions of L-carnitine calcium acetate of the present invention may be provided to test subjects as sterile aqueous solutions of L-carnitine calcium acetate which will be administered by injecting over one to three minutes in the venous line during the blood return immediately after the end of every dialysis treatment. In the alternative, the inventors expect that the unique physico-chemical properties of L-carnitine calcium acetate of the present invention will permit incorporation of L-carnitine calcium acetate into dialysate as a source of L-carnitine and as a partial or total replacement for the calcium that is conventionally included in dialysate."}, "[6]": {"conditions": "6-day storage open to ambient atmosphere"}}, "note": "“Also recorded” adds a separate entry of the source. Read-outs that look alike come from different tables or passages of the source.", "data": [{"compound": "C[N+](C)(C)C[C@H](O)CC(=O)[O-].[Ca]", "note": "[L-carnitine calcium salt]", "values": [{"measurement": "hygroscopicity and stability of the solid", "setting": "[1]", "value": "hygroscopic"}]}, {"compound": "C[N+](C)(C)C[C@H](O)CC(=O)[O-].O=C([O-])CCC(=O)[O-].[Ca+2]", "note": "[L-carnitine calcium succinate]", "values": [{"measurement": "hygroscopicity and stability of the solid", "setting": "[1]", "value": "hygroscopic"}]}, {"compound": "C[N+](C)(C)C[C@H](O)CC(=O)[O-]", "note": "[L-carnitine, L-(−)-Carnitine]", "values": [{"measurement": "hygroscopicity (known)", "setting": "[2]", "value": "very hygroscopic"}, {"measurement": "increase of plasma and red blood cell total carnitine concentrations", "setting": "[3]", "value": "eightfold"}, {"measurement": "Conclusion & Observations", "setting": "[4]; [6]", "value": "absorbed water. Material is hygroscopic."}, {"measurement": "change in mass, final vs initial net weight", "setting": "[4]; [6]", "value": "(+>8%)"}, {"measurement": "Net weight, final", "setting": "[4]", "value": ">226.8", "unit": "mg"}]}, {"compound": "CCC(=O)[O-].CCC(=O)[O-].C[N+](C)(C)C[C@H](O)CC(=O)[O-].[Ca+2]", "note": "[L-carnitine calcium propionate]", "values": [{"measurement": "change in mass, final vs initial net weight", "setting": "[4]; [6]", "value": "(+5%)"}, {"measurement": "Conclusion & Observations", "setting": "[4]; higher relative humidities (above about 20%)", "value": "absorbed water. Compound became"}, {"measurement": "Net weight, final", "setting": "[4]", "value": 170.2, "unit": "mg"}, {"measurement": "Conclusion & Observations", "setting": "[4]; relative humidity less than about 20%", "value": "mobility of the material did not change."}]}, {"compound": "L-carnitine calcium butyrate", "values": [{"measurement": "hygroscopicity and stability of the solid", "setting": "[1]; exposure to the atmosphere", "value": "not hygroscopic; also recorded: lack of hygroscopicity or deliquescence"}, {"measurement": "hygroscopicity and stability of the solid", "setting": "[1]; provided that the relative humidity is less than about 20%", "value": "not hygroscopic or deliquescent and is stable during storage"}]}, {"compound": "C[N+](C)(C)C[C@H](O)CC(=O)[O-].O=C([O-])/C=C/C(=O)[O-].[Ca+2]", "note": "[L-carnitine calcium fumarate]", "values": [{"measurement": "hygroscopicity and stability of the solid", "setting": "[1]", "value": "hygroscopic"}]}, {"compound": "CC(=O)[O-].CC(=O)[O-].C[N+](C)(C)C[C@H](O)CC(=O)[O-].[Ca+2]", "note": "[L-carnitine calcium acetate]", "values": [{"measurement": "change in plasma and red blood cell carnitine concentrations and total/free carnitine ratio", "setting": "[5]", "value": "measurable increases"}, {"measurement": "change in mass, final vs initial net weight", "setting": "[4]; [6]", "value": "(+0.3%)"}, {"measurement": "Conclusion & Observations", "setting": "[4]; 6-day storage open to ambient atmosphere, calcium acetate", "value": "did not absorb water and was stable during storage"}, {"measurement": "Conclusion & Observations", "setting": "[4]; 6-day storage open to ambient atmosphere, listed as L-Carnitine calcium acetate, calcium acetate", "value": "absorb water and was stable during storage."}, {"measurement": "Net weight, final", "setting": "[4]", "value": 149.5, "unit": "mg"}]}]}
